Activity data for eight compounds are collected here from ChEMBL document CHEMBL1156981, “NGF-potentiating vibsane-type diterpenoids from Viburnum sieboldii” (Bioorg Med Chem Lett, 2010).

Each structure is given as a SMILES string. Calls of active or inactive are those of the source. No cut-off for these calls is given here.

Common to all, as to assay type: functional, cell-based
For assay [1], the system named is PC-12. Put plainly: Potentiation of NGF-induced neurite outgrowth in rat PC12 cells assessed as morphological changes after 48 hrs by phase-contrast microscopy.
Assay [2] deals with PC-12. The assay can be described thus: Induction of neurite outgrowth in rat PC12 cells assessed as morphological changes after 48 hrs by phase-contrast microscopy.
The test system of assay [3] is PC-12. Put plainly: Potentiation of NGF-induced neurite outgrowth in rat PC12 cells assessed increase in neurite length extending from cell bodies after 48 hrs by phase-contrast microscopy.
The subject of assay [4] is PC-12. Put plainly: Potentiation of NGF-induced neurite outgrowth in rat PC12 cells assessed as morphological changes at 0.1 to 40 uM after 48 hrs by phase-contrast microscopy.
Assay [5] has as its system PC-12. Put plainly: Potentiation of NGF-induced neurite outgrowth in rat PC12 cells assessed increase in neurite length extending from cell bodies at 0.1 to 40 uM after 48 hrs by phase-contrast microscopy.

As for `COC(C)(C)/C=C/C[C@@]1(C)CC=C2CO[C@H]3C[C@@](C)(OC)O[C@@]23[C@@H]1/C=C\OC(=O)C=C(C)C`, the Activity entry in assay [1] and in assay [3] was “Dose-dependent effect” throughout. For the same compound, the result in assay [2] was inactive.
As for `CC(=O)C[C@@H]1C[C@@]2(C)CC=C3CO[C@@H](CC(C)=O)[C@]3(O1)[C@@H]2/C=C/OC(=O)C=C(C)C`, the result in assay [2] was inactive.
Take `CO[C@]1(C)C[C@@H]2OCC3=CC[C@](C)(C/C=C/C(C)C)[C@@H](/C=C/OC(=O)C=C(C)C)[C@]32O1`: the Activity entry in assay [1] and in assay [3] was “Dose-dependent effect” each time. Moreover, in assay [2], the outcome was inactive.
Regarding `COC(C)(C)/C=C/C[C@@]1(C)CC=C(CO)C(=O)[C@H](CC(C)=O)[C@@H]1/C=C/OC(=O)C=C(C)C`, the result in assay [4], in assay [2], in assay [3] and in assay [5] was inactive.
On to `COC(C)(C)/C=C/C[C@@]1(C)CC=C2CO[C@H]3C[C@](C)(OC)O[C@@]23[C@@H]1/C=C/OC(=O)C=C(C)C`, for which the Activity result in assay [1] and in assay [3] was “Dose-dependent effect” in each case. In addition, in assay [2], the result was inactive.
In the case of `COC(C)(C)/C=C/C[C@@]1(C)CC=C2CO[C@H]3C[C@@](C)(OC)O[C@@]23[C@@H]1/C=C/OC(=O)C=C(C)C`, the outcome in assay [2] was inactive.
As to `COC(C)(C)/C=C/C[C@@]1(C)CC=C(CO)C(=O)[C@@H](CC(C)=O)[C@@H]1/C=C/OC(=O)C=C(C)C`, the outcome in assay [4], in assay [2] and in assay [5] was inactive.
As for `CO[C@@]1(C)C[C@@H]2OCC3=CC[C@](C)(C/C=C/C(C)C)[C@@H](/C=C/OC(=O)C=C(C)C)[C@]32O1`, the Activity result in assay [1] and in assay [3] was “Dose-dependent effect” in each case. The result in assay [2] was inactive.
